Results reported in patent publication US20240174690A1, “ANNULATED 2-AMINO-3-CYANO THIOPHENES AND DERIVATIVES FOR THE TREATMENT OF CANCER” (BOEHRINGER INGELHEIM INTERNATIONAL GMBH, priority 2021, published 2024).
Converted amounts (≈) assume the structure as drawn. Like-named read-outs stand apart in the source and are kept apart here.

How the values were obtained:
NCI-H358 cells = test: NCI-H358 CTG proliferation assay (120 h) (NSCLC, G12C); assay type: cell-based, human; conditions: Homo sapiens
Description: NCI-H358 CTG Proliferation Assay (120 h) (NSCLC, G12C)
NCI-H358 cells (ATCC No. CRL-5807) are dispensed into white bottom opaque 96 well plates (Perkin Elmer cat no. 5680) at a density of 2000 cells per well in 100 μL RPMI-1640 ATCC-Formulation (Gibco #A10491)+10% FCS (fetal calf serum) (assay 1) or into black 384-well plates, flat and clear bottom (Greiner, PNr. 781091) at a density of 200 cells per well in 60 μl RPMI-1640 ATCC-Formulation (Gibco #A10491)+10% FCS (fetal calf serum) (assay 2). […] Compounds (10 mM stock in DMSO) are added at logarithmic dose series using the HP Digital Dispenser D300 (Tecan) (assay 1) or the ECHO acoustic liquid handler system (Beckman Coulter) (assay 2), normalizing for added DMSO and including DMSO controls. For the TO time point measurement, untreated cells are analyzed at the time of compound addition. Plates are incubated for 120 h, and cell viability is measured using CellTiter-Glo luminescent cell viability reagent (Promega product code G7570). Viability (stated as percent of control) is defined as relative luminescence units RLU of each well divided by the RLU of cells in DMSO controls. IC50 values are determined from viability measurements by non-linear regression using a four parameter model.

[1] = Solubility measurement (DMSO solution method), McIlvaine buffer pH 4.5 or 6.8; assay type: physicochemical; conditions: aqueous buffer, kinetic from dmso stock, DMSO stock diluted to 250 μM, 24 h shaking at ambient temperature
Description: The DMSO solution is diluted with an aqueous medium (Mcllvaine buffer with pH=4.5 or 6.8) to a final concentration of 250 μM. After 24 h of shaking at ambient temperature a potentially formed precipitate is removed by filtration. The concentration of the test compound in the filtrate is determined by LC-UV methods by calibrating the signal to the signal of a reference solution with complete dissolution of the test compound in acetonitrile/water (1:1) with known concentration.

CYP3A4 = CYP3A4 (Homo sapiens (Human), UniProt P08684); test: Mechanism based inhibition of CYP3A4 assay (MBI 3A4); assay type: in vitro ADME; conditions: hydroxy-midazolam formation after 30 min vs 0 min preincubation, 25 uM, human liver microsomes
Sequence of CYP3A4 (P08684 whole entry): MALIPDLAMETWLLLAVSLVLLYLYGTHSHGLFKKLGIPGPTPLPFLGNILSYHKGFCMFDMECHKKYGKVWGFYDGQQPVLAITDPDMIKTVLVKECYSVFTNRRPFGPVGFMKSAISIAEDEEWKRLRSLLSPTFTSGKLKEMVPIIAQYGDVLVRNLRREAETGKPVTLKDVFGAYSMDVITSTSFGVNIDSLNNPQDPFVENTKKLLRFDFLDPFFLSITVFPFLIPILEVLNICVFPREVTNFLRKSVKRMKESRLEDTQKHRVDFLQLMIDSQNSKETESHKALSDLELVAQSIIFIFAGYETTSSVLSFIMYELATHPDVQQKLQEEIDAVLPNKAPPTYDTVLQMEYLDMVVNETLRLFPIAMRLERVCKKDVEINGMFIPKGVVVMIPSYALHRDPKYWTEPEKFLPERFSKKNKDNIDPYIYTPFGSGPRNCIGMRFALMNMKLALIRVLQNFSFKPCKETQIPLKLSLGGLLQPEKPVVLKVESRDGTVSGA
Description: After preincubation, the incubate is diluted 1:10 and the substrate midazolam is added for the main incubation (15 min). The main incubation is quenched with acetonitrile and the formation of hydroxy-midazolam is quantified via LC/MS-MS. The formation of hydroxy-midazolam from the 30 min preincubation relative to the formation from the 0 min preincubation is used as a readout. Values of less than 100% mean that the substrate midazolam is metabolized to a lower extent upon 30 min preincubation compared to 0 min preincubation. In general low effects upon 30 min preincubation are desired (corresponding to values close to 100%/not different to the values determined with water control).

SK-CO-1 cells = test: SK-CO-1 CTG proliferation assay (120 h) (CRC, G12V); assay type: cell-based; conditions: Homo sapiens; SK-CO-1 cells (CRC, G12V), CTG 120 h
Description: SK-CO-1 CTG Proliferation Assay (120 h) (CRC, G12V)
SK-CO-1 cells (ATCC HTB-39) are dispensed into 384-well plates, flat and clear bottom (Greiner, PNr. 781091) at a density of 500 cells per well in 60 μL EMEM (Sigma M5650)+10% Fetal Calf Serum (HyClone, PNr.: SH30084.03) and incubated at 37° C. in a CO2 incubator overnight. The next day, compounds (10 mM stock in DMSO) are added with the ECHO acoustic liquid handler system (Beckman Coulter), including DMSO controls. Plates are incubated for 120 h, and cell viability is measured using CellTiter-Glo luminescent cell viability reagent (Promega product code G7570). Viability (stated as percent of control) is defined as relative luminescence units RLU of each well divided by the RLU of cells in DMSO controls. IC50 values are determined from viability measurements by non-linear regression using a four-parameter model.

[2] = assay 2, CTG, read-out: H358 (assay 2) IC50
[3] = McIlvaine buffer pH 4.5, read-out: solubility pH 4.5
[4] = McIlvaine buffer pH 6.8, read-out: solubility pH 6.8
[5] = assay 1, CTG, read-out: H358 (assay 1) IC50

CNC(=O)c1cn(-c2cc(O[C@@H](C)[C@@H]3CCCN3C)nc(-c3noc4c3CCC[C@@]43CCCc4sc(N)c(C#N)c43)n2)nn1 [II-122]
IC50 (NCI-H358 cells; [2]): 823 nM
solubility at 24 h [1, 3]: 122 µg/mL (≈ 198 µM)
solubility at 24 h [1, 4]: 98 µg/mL (≈ 159 µM)
MBI 3A4 (CYP3A4): 68%
IC50 (SK-CO-1 cells): 52 nM

C[C@H](Oc1cc(N2CCN(C)CC2)nc(-c2noc3c2CCC[C@@]32CCCc3sc(N)c(C#N)c32)n1)[C@@H]1CCCN1C [II-55]
IC50 (NCI-H358 cells; [2]): 588 nM
solubility at 24 h [1, 3]: > 172 µg/mL
solubility at 24 h [1, 4]: > 161 µg/mL
MBI 3A4 (CYP3A4): 88%
IC50 (SK-CO-1 cells): 754 nM

C[C@H](Oc1cc(-c2ccn(C3CC3)n2)nc(-c2noc3c2CCC[C@@]32CCCc3sc(N)c(C#N)c32)n1)[C@@H]1CCCN1C [II-98]
IC50 (NCI-H358 cells; [2]): 242 nM
solubility at 24 h [1, 3]: 83 µg/mL (≈ 139 µM)
solubility at 24 h [1, 4]: < 1 µg/mL
MBI 3A4 (CYP3A4): 74%
IC50 (SK-CO-1 cells): 137 nM

C[C@H](Oc1cc(-c2cnsc2)nc(-c2noc3c2CCC[C@@]32CCCc3sc(N)c(C#N)c32)n1)[C@@H]1CCCN1C [II-111]
IC50 (NCI-H358 cells; [2]): 139 nM
solubility at 24 h [1, 3]: 22 µg/mL (≈ 38.3 µM)
solubility at 24 h [1, 4]: < 1 µg/mL
MBI 3A4 (CYP3A4): 76%
IC50 (SK-CO-1 cells): 51 nM

CC(=O)N1CC=C(c2cc(O[C@@H](C)[C@@H]3CCCN3C)nc(-c3noc4c3CCC[C@@]43CCCc4sc(N)c(C#N)c43)n2)CC1 [II-81]
IC50 (NCI-H358 cells; [2]): 1200 nM
solubility at 24 h [1, 3]: 114 µg/mL (≈ 186 µM)
solubility at 24 h [1, 4]: 84 µg/mL (≈ 137 µM)
MBI 3A4 (CYP3A4): 62%
IC50 (SK-CO-1 cells): 32 nM

C[C@H](Oc1cc(-c2ccn(C3COC3)n2)nc(-c2noc3c2CCC[C@@]32CCCc3sc(N)c(C#N)c32)n1)[C@@H]1CCCN1C [II-109]
IC50 (NCI-H358 cells; [2]): 78 nM
solubility at 24 h [1, 3]: 117 µg/mL (≈ 191 µM)
solubility at 24 h [1, 4]: 61 µg/mL (≈ 99.5 µM)
MBI 3A4 (CYP3A4): 63%
IC50 (SK-CO-1 cells): 106 nM

COCc1cn(-c2cc(O[C@@H](C)[C@@H]3CCCN3C)nc(-c3noc4c3CCC[C@@]43CCCc4sc(N)c(C#N)c43)n2)nn1 [II-121]
IC50 (NCI-H358 cells; [2]): 268 nM
solubility at 24 h [1, 3]: 109 µg/mL (≈ 181 µM)
solubility at 24 h [1, 4]: 69 µg/mL (≈ 115 µM)
MBI 3A4 (CYP3A4): 56%
IC50 (SK-CO-1 cells): 57 nM

C[C@H](Oc1cc(N2C[C@H](C)NC3(CC3)C2)nc(-c2onc3c2CCC[C@@]32CCCc3sc(N)c(C#N)c32)n1)[C@@H]1CCCN1C [I-8]
IC50 (NCI-H358 cells; [5]): 874 nM
solubility at 24 h [1, 3]: > 146 µg/mL
solubility at 24 h [1, 4]: 116 µg/mL (≈ 189 µM)
MBI 3A4 (CYP3A4): 25%
IC50 (SK-CO-1 cells): 532 nM

Cc1cn(C)nc1-c1cc(O[C@@H](C)[C@@H]2CCCN2C)nc(-c2noc3c2CCC[C@@]32CCCc3sc(N)c(C#N)c32)n1 [II-68]
IC50 (NCI-H358 cells; [2]): 111 nM
solubility at 24 h [1, 3]: 79 µg/mL (≈ 135 µM)
solubility at 24 h [1, 4]: 5 µg/mL (≈ 8.55 µM)
MBI 3A4 (CYP3A4): 74%
IC50 (SK-CO-1 cells): 5570 nM

C[C@H](Oc1cc(-n2ccnc2)nc(-c2noc3c2CCC[C@@]32CCCc3sc(N)c(C#N)c32)n1)[C@@H]1CCCN1C [II-69]
IC50 (NCI-H358 cells; [2]): 290 nM
solubility at 24 h [1, 3]: 108 µg/mL (≈ 194 µM)
solubility at 24 h [1, 4]: 76 µg/mL (≈ 137 µM)
MBI 3A4 (CYP3A4): 94%
IC50 (SK-CO-1 cells): 115 nM

C[C@H](O)Cn1ccc(-c2cc(O[C@@H](C)[C@@H]3CCCN3C)nc(-c3noc4c3CCC[C@@]43CCCc4sc(N)c(C#N)c43)n2)n1 [II-112]
IC50 (NCI-H358 cells; [2]): 141 nM
solubility at 24 h [1, 3]: > 139 µg/mL
solubility at 24 h [1, 4]: 121 µg/mL (≈ 197 µM)
MBI 3A4 (CYP3A4): 81%
IC50 (SK-CO-1 cells): 34 nM

C[C@H](Oc1cc(N2CCN(C)C2=O)nc(-c2noc3c2CCC[C@@]32CCCc3sc(N)c(C#N)c32)n1)[C@@H]1CCCN1C [II-75]
IC50 (NCI-H358 cells; [5]): 49 nM
IC50 (NCI-H358 cells; [2]): 10 nM
solubility at 24 h [1, 3]: > 122 µg/mL
solubility at 24 h [1, 4]: 91 µg/mL (≈ 155 µM)
MBI 3A4 (CYP3A4): 57%
IC50 (SK-CO-1 cells): 23 nM

C[C@H](Oc1cc(N2CCNC[C@]23CCOC3)nc(-c2noc3c2CCC[C@@]32CCCc3sc(N)c(C#N)c32)n1)[C@@H]1CCCN1C [II-50]
IC50 (NCI-H358 cells; [2]): 2710 nM
solubility at 24 h [1, 3]: > 144 µg/mL
solubility at 24 h [1, 4]: > 135 µg/mL
MBI 3A4 (CYP3A4): 54%
IC50 (SK-CO-1 cells): 802 nM
